Measured values published in ChEMBL document CHEMBL1201862, “PubChem BioAssay data set” (2004).
Active and inactive are the calls of the source.

Legend:
14-3-3 protein gamma = 14-3-3 protein gamma (Homo sapiens, UniProt P61981); experiment: modulators of 14-3-3 gamma client binding – dose response (AID 711); format: functional
[1] = biological target: Ubiquitin carboxyl-terminal hydrolase BAP1 (Homo sapiens, UniProt Q92560); experiment: inhibition of BAP1 ubiquitin hydrolase activity – biochemical, dose response (AID 714); format: functional
Ubiquitin carboxyl-terminal hydrolase BAP1, sequence (Q92560 whole entry): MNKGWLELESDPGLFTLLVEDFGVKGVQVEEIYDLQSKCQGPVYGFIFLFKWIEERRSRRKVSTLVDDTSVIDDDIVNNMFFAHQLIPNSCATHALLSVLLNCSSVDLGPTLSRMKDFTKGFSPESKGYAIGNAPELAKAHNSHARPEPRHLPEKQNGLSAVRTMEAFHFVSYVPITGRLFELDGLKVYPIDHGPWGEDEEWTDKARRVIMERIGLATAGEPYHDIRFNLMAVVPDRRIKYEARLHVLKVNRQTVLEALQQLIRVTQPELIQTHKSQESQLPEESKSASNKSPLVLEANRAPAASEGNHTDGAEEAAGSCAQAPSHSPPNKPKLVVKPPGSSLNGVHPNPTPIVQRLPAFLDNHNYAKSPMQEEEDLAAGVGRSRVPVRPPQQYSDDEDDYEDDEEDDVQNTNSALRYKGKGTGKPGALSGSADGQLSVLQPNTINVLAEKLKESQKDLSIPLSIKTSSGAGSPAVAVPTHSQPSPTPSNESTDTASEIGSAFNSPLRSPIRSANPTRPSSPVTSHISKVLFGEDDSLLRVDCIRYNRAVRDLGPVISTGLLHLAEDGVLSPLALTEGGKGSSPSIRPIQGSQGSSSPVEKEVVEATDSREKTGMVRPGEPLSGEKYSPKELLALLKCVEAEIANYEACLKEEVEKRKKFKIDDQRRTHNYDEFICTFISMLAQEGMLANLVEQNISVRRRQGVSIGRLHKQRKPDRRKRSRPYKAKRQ

Bcl-2-related protein A1 [2] = biological target: T1, Bcl-2-related protein A1 (Mus musculus, UniProt Q07440); experiment: displacement of Bid BH3 peptide from Bfl-1 – biochemical, fluorescence polarization, FITC-Bid, mouse, primary screen (AID 432)
T1 sequence (Q07440 whole entry): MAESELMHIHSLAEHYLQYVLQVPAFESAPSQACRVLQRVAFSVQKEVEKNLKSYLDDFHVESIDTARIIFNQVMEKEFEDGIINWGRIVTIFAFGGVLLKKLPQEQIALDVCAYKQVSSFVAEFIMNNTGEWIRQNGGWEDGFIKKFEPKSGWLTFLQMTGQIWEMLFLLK

SUMO-activating enzyme [3] = biological target: T2, SUMO-activating enzyme (Homo sapiens, UniProt Q9UBT2); experiment: blockers of UBC9-mediated SUMO conjugation – biochemical, AlphaScreen, SUMOylation inhibitor project, confirmation (AID 2018); format: functional
T2 sequence (Q9UBE0 whole entry): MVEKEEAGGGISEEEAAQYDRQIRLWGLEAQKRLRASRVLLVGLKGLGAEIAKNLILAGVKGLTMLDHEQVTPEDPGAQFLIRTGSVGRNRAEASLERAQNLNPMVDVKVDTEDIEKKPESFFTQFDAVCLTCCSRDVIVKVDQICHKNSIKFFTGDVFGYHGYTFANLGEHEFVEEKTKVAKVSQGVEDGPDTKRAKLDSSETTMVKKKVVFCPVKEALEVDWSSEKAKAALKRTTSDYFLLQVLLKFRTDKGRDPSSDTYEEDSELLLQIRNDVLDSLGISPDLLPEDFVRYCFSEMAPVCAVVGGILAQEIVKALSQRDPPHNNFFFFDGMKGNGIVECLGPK
T2 sequence (Q9UBT2 whole entry): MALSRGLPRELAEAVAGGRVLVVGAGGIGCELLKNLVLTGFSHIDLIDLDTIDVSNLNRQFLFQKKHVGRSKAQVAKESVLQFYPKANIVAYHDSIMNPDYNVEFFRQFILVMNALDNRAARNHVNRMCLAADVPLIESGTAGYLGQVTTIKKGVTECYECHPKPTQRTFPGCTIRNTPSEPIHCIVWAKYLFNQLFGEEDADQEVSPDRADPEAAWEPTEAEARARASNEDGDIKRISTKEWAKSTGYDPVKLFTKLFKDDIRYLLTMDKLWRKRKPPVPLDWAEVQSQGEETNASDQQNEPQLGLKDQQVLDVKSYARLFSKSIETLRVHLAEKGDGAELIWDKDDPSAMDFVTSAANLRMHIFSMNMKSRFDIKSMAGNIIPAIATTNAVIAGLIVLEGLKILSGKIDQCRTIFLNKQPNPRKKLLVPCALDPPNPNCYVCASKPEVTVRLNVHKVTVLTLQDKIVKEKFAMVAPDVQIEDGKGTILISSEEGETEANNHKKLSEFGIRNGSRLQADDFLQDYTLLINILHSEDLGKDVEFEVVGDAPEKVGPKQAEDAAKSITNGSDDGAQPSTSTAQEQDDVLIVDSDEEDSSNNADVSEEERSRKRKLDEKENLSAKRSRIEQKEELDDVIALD

SUMO-activating enzyme [4] = biological target: T2, SUMO-activating enzyme; experiment: blockers of SAE1/SAE2–UBC9 SUMO transfer – biochemical, HTRF, uHTS, primary screen (AID 2006); format: protein-complex assay
Bcl-2-related protein A1 [5] = biological target: T1, Bcl-2-related protein A1; experiment: small-molecule antagonists of Bfl-1/BH3 interaction – biochemical, TR-FRET, mouse Bfl-1, confirmation (AID 621);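 note: TR-FRET binding of GST-Bfl-1 to FITC-labelled Bid peptide via terbium antibody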
[6] = biological target: T3, Replicative DNA helicase DnaB (Mycobacterium tuberculosis, UniProt P9WMR3); experiment: DnaB intein splicing inhibitors, dose response, biochemical, cell-free fluorescence (AID 449749); format: functional
T3 sequence (P9WMR3 whole entry): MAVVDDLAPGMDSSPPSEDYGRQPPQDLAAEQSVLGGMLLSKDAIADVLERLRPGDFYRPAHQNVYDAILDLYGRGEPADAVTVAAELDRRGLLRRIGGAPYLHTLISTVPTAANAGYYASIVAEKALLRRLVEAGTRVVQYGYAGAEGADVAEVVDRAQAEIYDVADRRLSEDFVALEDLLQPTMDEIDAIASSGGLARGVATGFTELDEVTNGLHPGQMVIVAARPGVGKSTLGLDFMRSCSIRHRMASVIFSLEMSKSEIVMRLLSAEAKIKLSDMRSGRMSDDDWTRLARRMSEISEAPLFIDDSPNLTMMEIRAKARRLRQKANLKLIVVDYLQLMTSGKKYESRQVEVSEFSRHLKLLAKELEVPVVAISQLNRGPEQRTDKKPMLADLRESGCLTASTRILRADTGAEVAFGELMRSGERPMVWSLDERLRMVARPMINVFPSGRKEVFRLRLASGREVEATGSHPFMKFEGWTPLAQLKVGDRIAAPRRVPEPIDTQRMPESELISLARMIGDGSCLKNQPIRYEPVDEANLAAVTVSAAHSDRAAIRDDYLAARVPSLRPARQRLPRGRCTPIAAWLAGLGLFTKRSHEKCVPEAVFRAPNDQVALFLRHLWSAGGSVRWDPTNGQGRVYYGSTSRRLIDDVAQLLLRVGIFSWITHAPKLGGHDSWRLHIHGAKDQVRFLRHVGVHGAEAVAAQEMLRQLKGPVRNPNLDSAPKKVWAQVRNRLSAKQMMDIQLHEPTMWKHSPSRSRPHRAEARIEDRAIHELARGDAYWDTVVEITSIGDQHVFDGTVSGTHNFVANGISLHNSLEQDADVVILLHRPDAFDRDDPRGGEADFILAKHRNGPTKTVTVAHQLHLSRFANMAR

Protein RecA = biological target: T4, Protein RecA (Mycobacterium tuberculosis, UniProt P9WHJ3); experiment: Fluorescence Cell-Free Homogeneous Dose Retest to Identify Inhibitors of RecA-Intein Splicing Activity. [Related pubchem assays (depositor defined):AID2097, AID2223, AID489010, AID492950]; format: functional
T4 sequence (P9WHJ3 whole entry): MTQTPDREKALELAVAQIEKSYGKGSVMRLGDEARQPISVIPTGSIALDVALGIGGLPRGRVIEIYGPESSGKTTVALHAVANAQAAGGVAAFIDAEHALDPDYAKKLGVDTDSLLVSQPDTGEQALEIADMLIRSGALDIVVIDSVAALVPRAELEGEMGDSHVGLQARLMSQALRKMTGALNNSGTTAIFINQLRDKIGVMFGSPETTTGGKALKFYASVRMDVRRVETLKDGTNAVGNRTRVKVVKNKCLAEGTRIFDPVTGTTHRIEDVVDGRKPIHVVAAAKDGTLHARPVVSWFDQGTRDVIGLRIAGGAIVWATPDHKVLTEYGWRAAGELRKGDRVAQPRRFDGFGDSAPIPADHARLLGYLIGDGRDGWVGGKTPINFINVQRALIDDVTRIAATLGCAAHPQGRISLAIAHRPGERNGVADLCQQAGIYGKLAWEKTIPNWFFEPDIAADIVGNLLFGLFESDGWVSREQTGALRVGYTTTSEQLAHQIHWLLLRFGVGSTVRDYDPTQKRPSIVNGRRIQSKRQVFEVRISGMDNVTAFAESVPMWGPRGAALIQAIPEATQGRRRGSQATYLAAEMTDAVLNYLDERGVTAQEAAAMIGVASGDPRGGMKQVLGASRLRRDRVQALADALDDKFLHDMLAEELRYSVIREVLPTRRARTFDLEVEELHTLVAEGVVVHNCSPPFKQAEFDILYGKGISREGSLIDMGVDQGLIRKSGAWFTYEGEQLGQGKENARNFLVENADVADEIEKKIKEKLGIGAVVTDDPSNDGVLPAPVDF

fMet-Leu-Phe receptor = fMet-Leu-Phe receptor (Homo sapiens, UniProt P21462); experiment: formyl peptide receptor binders – dose response (AID 519); format: functional
Genome polyprotein = Genome polyprotein (Hepatitis C virus, UniProt Q2Q167); experiment: disruption of hepatitis C core self-association – biochemical, TR-FRET, dose response (AID 2159); set-up: species or system Hepacivirus hominis;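 note: blocks dimerization of HCV core protein measured by TR-FRET between tagged core106 pairs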
Genome polyprotein, sequence (Q2Q167 whole entry): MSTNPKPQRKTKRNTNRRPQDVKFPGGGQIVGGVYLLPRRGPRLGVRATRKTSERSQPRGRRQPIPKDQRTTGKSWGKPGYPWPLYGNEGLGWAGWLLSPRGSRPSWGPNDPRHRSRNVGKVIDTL

Cytochrome P450 2C19 = Cytochrome P450 2C19 (Homo sapiens, UniProt P33261); experiment: qHTS Assay for Inhibitors and Substrates of Cytochrome P450 2C19. [Related pubchem assays: 410 ]; format: ADME; settings: read-out: Potency
Cytochrome P450 2C19, sequence (P33261 whole entry): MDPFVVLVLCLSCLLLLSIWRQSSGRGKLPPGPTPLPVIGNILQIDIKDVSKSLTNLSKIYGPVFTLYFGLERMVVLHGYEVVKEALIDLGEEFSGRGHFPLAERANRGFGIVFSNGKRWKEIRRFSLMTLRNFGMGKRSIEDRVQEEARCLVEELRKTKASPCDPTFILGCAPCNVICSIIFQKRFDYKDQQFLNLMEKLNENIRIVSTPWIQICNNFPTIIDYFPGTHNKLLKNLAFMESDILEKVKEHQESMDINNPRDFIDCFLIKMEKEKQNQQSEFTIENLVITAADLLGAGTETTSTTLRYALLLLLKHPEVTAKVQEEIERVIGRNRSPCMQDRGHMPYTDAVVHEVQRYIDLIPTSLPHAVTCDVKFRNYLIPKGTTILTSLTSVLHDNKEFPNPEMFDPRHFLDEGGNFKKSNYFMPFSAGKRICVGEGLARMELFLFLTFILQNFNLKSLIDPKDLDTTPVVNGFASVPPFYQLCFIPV

Cytochrome P450 3A4 = Cytochrome P450 3A4 (Homo sapiens, UniProt P08684); settings: Potency;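 note: confirmatory qHTS run detecting inhibitors and substrates of CYP3A4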
Cytochrome P450 3A4, sequence (P08684 whole entry): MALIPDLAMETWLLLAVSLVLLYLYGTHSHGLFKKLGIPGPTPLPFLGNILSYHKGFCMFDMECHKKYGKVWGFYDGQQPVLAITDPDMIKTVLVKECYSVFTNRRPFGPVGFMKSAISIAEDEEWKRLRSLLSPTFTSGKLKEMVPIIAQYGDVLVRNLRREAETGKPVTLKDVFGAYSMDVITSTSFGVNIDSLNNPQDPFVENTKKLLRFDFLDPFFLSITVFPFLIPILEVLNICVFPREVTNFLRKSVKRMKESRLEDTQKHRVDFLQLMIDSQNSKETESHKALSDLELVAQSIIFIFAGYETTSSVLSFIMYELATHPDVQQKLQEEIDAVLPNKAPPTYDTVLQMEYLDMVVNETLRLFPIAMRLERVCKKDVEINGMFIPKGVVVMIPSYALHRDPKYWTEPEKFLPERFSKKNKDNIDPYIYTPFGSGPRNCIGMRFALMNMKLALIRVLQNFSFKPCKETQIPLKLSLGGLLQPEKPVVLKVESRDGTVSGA

[7] = biological target: Peroxisome proliferator-activated receptor gamma/Nuclear receptor corepressor 2 (Homo sapiens, UniProt P37231+Q9Y618); experiment: Counterscreen for NR2E3 inverse agonists: TR-FRET-based biochemical high throughput dose response assay to identify inverse agonists of the interaction between peroxisome proliferator-activated receptor gamma (PPARg) and nuclear receptor co-repressor 2 (NCOR2).; format: functional
[8] = biological target: Photoreceptor-specific nuclear receptor (Homo sapiens, UniProt Q9Y5X4); experiment: ligands suppressing NR2E3 nuclear receptor activity – biochemical, TR-FRET, dose response (AID 463256); format: functional
[9] = biological target: Voltage-gated inwardly rectifying potassium channel KCNH2 (Homo sapiens, UniProt Q12809); experiment: concentration-dependent hERG rescue from blockers – cell-based, thallium flux, dose response (AID 2121); format: ADME
Vero = experiment: viability of Vero cells under compound – cytotoxicity control for flavivirus capping enzyme inhibitors (AID 588742); format: functional; settings: Chlorocebus sabaeus
[10] = biological target: T5, Probable nicotinate-nucleotide adenylyltransferase (Staphylococcus aureus (strain N315), UniProt P65502); format: functional, Staphylococcus aureus subsp. aureus N315;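 for IC50 Mean: confirmatory dose-response retesting of NadD inhibitor hits first found in an ultra-high-throughput screen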
T5 sequence (P65502 whole entry): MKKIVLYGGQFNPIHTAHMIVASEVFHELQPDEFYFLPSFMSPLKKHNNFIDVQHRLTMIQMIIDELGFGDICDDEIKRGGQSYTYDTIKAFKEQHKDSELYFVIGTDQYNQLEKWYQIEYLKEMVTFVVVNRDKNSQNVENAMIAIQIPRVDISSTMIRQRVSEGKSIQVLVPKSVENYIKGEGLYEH

[11] = biological target: T5, Probable nicotinate-nucleotide adenylyltransferase; format: functional, Staphylococcus aureus subsp. aureus N315; settings: read-out: IC50_Mean
[12] = biological target: SWI/SNF-related matrix-associated actin-dependent regulator of chromatin subfamily A member 2 (Homo sapiens, UniProt P51531); experiment: Luminescence-based cell-based high throughput dose response assay to identify activators of the function of SWI/SNF related, matrix associated, actin dependent regulator of chromatin, subfamily a, member 2 (SMARCA2, BRM).; format: functional
SWI/SNF-related matrix-associated actin-dependent regulator of chromatin subfamily A member 2, sequence (P51531 whole entry): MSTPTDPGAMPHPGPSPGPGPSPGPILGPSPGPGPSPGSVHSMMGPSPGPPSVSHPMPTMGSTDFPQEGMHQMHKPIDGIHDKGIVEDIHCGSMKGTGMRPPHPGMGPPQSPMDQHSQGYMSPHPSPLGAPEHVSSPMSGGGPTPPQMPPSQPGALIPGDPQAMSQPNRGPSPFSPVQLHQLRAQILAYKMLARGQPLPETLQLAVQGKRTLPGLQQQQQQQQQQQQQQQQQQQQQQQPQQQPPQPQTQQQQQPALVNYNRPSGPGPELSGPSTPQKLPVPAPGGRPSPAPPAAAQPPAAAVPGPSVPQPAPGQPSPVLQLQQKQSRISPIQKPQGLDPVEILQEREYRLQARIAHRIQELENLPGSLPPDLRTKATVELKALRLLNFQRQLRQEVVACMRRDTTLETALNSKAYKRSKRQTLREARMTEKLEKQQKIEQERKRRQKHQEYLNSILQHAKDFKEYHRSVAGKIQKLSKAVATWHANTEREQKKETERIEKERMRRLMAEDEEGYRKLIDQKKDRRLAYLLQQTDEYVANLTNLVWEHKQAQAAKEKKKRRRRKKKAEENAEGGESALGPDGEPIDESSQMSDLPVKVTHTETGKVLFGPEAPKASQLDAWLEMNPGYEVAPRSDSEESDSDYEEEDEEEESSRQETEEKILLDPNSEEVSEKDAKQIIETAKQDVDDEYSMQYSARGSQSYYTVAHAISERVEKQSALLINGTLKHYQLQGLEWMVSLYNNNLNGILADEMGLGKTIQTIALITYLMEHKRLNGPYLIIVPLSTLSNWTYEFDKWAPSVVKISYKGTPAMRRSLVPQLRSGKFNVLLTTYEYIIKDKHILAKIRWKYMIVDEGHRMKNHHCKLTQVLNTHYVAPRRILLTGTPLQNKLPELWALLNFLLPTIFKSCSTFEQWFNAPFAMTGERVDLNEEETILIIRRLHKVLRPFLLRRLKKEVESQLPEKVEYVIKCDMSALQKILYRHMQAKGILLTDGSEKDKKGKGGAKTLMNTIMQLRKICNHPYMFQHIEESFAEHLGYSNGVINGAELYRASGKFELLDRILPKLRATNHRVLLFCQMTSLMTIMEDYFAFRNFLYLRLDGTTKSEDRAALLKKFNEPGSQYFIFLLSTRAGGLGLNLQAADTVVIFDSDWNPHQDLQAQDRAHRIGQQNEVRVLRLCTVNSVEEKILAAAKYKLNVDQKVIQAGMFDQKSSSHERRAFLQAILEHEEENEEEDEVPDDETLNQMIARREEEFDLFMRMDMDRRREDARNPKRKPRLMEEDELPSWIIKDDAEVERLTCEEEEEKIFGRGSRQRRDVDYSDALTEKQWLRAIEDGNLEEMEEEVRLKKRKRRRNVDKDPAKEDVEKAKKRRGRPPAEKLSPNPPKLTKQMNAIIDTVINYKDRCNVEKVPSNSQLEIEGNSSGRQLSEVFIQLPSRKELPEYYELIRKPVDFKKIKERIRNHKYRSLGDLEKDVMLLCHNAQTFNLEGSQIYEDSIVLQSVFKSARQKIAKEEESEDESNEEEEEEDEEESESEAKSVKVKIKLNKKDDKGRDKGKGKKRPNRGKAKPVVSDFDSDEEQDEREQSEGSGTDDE

[13] = Counterscreen for activators of the function of SWI/SNF related, matrix associated, actin dependent regulator of chromatin, subfamily a, member 2 (SMARCA2, BRM): Luminescence-based cell-based high throughput dose response assay to identify non-selective compounds using the VP16 reporter assay.; format: functional
[14] = biological target: T6, Tyrosine-protein phosphatase non-receptor type 7 (Homo sapiens, UniProt P35236); experiment: HePTP tyrosine phosphatase activity blockers – biochemical, absorbance, leukemia target, primary screen (AID 521); format: functional
T6 sequence (P35236 whole entry): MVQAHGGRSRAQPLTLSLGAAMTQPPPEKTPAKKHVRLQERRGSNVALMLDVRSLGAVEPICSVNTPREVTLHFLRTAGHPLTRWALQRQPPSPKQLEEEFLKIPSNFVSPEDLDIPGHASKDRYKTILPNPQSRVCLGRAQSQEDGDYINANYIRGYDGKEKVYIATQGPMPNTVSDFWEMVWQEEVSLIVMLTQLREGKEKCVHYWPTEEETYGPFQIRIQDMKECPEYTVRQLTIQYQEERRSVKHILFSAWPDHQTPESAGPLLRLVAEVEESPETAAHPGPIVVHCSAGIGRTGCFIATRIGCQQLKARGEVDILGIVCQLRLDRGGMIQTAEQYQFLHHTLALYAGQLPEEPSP

[15] = rise of 2N DNA cells, HeLa – IC50, dose response (AID 1117349); format: functional, cell-based
[16] = CellTiter-Glo luminescence survival assay, SW480 colon tumor line, concentration-response curve, half-maximal inhibitory concentration (AID 1117338); format: functional
[17] = RKO cell viability reduction, dose response, CellTiter-Glo luminescence (AID 1117322); format: functional
[18] = cytotoxicity toward HCT116 cells – cell-based, CellTiter-Glo luminescence, IC50, dose response (AID 1117332); format: functional; settings: HCT-116
[19] = SNU-C1 cell viability reduction, dose response, CellTiter-Glo luminescence (AID 1117323); format: functional, cell-based
[20] = cytotoxicity toward Colo320 cells – cell-based, CellTiter-Glo luminescence, IC50, dose response (AID 1117334); format: functional; settings: COLO 320
[21] = rise of 4N DNA cells, HeLa – IC50, dose response (AID 1117351); format: functional, cell-based
[22] = cytotoxicity toward HT-29 cells – cell-based, CellTiter-Glo luminescence, IC50, dose response (AID 1117330); format: functional
[23] = Reduced DLD-1 viability, concentration-response, CellTiter-Glo luminescence (AID 1117352); format: functional
[24] = HCT116 cell viability decrease, GSK3B pretreatment – CellTiter-Glo, IC50, dose response (AID 1117339); format: functional; settings: HCT-116
[25] = Luminescent dose response cell-based high throughput screening assay for inhibitors of the Janus kinase 2 mutant JAK2V617F. [Related pubchem assays: 1446 (Primary screen.), 1521 (Confirmation assay.), 1486 (Counter screen.)]; format: functional
[26] = microbe, parasite or virus in culture; format: functional; settings: Mycobacterium tuberculosis
Jurkat = experiment: blockers of NF-kB activation in T cells – Jurkat, luciferase reporter, luminescence, B- and T-cell, dose response (AID 489004); format: functional, cell-based; settings: Homo sapiens;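 note: NF-kB luciferase reporter Jurkat cells stimulated with PMA plus ionomycin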
[27] = HEK-293T viability loss, compound-treated – cell-based, uHTS hits, cytotoxicity control for B/T-cell NF-kB inhibitor project, dose response (AID 489019); format: functional;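 note: IC50 reflects cytotoxicity as loss of cell viability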
Paired box protein Pax-8 = Paired box protein Pax-8 (Homo sapiens, UniProt Q06710); experiment: PAX8 transcriptional activity inhibition in RMG-I – RMG-I cells, luciferase, cherry-pick, dose response (AID 687027); format: functional, cell-based;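 note: luciferase reporter driven by Pax8 target thyroperoxidase promoter measured by SteadyGlo luminescence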
[28] = general cell-killing toxicity readout – plate reader, dry powder samples, cytotoxicity control for PAX8 inhibitor project, dose response (AID 743021); format: functional, cell-based

14-3-3 protein gamma, sequence (P61981 whole entry): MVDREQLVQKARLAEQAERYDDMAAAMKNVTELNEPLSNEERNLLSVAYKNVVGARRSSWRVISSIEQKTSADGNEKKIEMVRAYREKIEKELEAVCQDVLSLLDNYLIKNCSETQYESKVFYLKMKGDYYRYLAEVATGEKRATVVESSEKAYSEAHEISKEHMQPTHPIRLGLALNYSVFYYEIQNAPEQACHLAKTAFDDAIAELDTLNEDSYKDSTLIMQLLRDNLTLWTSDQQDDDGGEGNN

CN1CCc2c(sc(/N=C/c3ccco3)c2C(N)=O)C1
IC50 (14-3-3 protein gamma): > 50 µM (not active)

Cc1sc(NC(=O)CSc2nnc(-c3ccccc3)o2)c(C#N)c1C
IC50 [1]: 44.8 µM (not active)

Cc1ccccc1Nc1cc2ccccc2c(O)n1
IC50 (Bcl-2-related protein A1 [2]): 22.4 µM (active) | IC50 (SUMO-activating enzyme [3]): 1.84 µM (active) | IC50 (SUMO-activating enzyme [4]): 4.3 µM (active) | IC50 (Bcl-2-related protein A1 [5]): > 100 µM (not active) | AC50 [6]: 41.9 µM (inconclusive) | EC50 (Protein RecA): 0.616 µM (active) | Ki (fMet-Leu-Phe receptor): > 66.7 µM (inactive)

Cc1sccc1C1C(C#N)=C(N)SC(N)=C1C#N
IC50 (Genome polyprotein): > 49.8 µM (not active)

O=Cc1ccc(OC2C=CC(C#Cc3ccccc3)OC2CO)cc1 (configuration not stated)
AC50 (Cytochrome P450 2C19): 0.631 µM (inconclusive) | AC50 (Cytochrome P450 3A4): 3.98 µM (inconclusive)

COc1ccc(N2CC(=O)C(c3nc(-c4ccccc4)cs3)=C2N)cc1
IC50 [7]: 24.7 µM (not active) | IC50 [8]: 13.4 µM (not active)

O=C1NC(=S)NC(=O)C1=NNc1ccc(S(=O)(=O)N2CCc3ccccc32)cc1
EC50 [9]: 0.62 µM (active) | CC50 (Vero): > 20 µM (active) | IC50 [10]: 8.57 µM (active) | IC50 [11]: 62.4 µM (active) | EC50 [12]: > 91.2 µM (inactive) | EC50 [13]: > 91.2 µM (inactive)

CCC(=O)Nc1c(C#N)c2nc3ccccc3nc2n1-c1ccc(C)cc1
IC50 [14]: > 100 µM (not active)

O=C(c1cc(O)c(O)c(O)c1)c1ccc(O)c(O)c1O [EXIFONE]
IC50 [15]: > 10 µM (inactive) | IC50 [16]: 9.95 µM (inactive) | IC50 [17]: 0.192 µM (active) | IC50 [18]: 16.3 µM (inactive) | IC50 [19]: 12.8 µM (inactive) | IC50 [20]: 9.38 µM (inactive) | IC50 [21]: > 10 µM (inactive) | IC50 [22]: 9.45 µM (inactive) | IC50 [23]: 11.9 µM (inactive) | IC50 [24]: 0.0691 µM (active)

Cc1ccc(Cn2ccs/c2=N\C(=O)CCl)cc1
IC50 [25]: 0.744 µM (active) | CC50 [26]: 0.299 µM (active) | IC50 (Jurkat): 0.49 µM (active) | IC50 [27]: > 80 µM (inactive) | AC50 (Paired box protein Pax-8): 1.31 µM (active) | AC50 [28]: 3.73 µM (active)
